From patent US20180353445A1, “METHODS AND COMPOSITIONS RELATING TO PROTEASOME INHIBITOR RESISTANCE” (Whitehead Institute for Biomedical Research, priority 2017, published 2018)
Entries after “also recorded” stand apart in the source; their conditions may differ.

How the values were obtained:
MCF7 and HEK293 cells = assay: Cell viability with glucose or galactose as the carbon source; format: cell-based, human; details: 10 mM glucose or 10 mM galactose
Protocol: Cells were treated with increasing concentrations of elesclomol in the presence of either Glucose or Galactose as the carbon source (FIG. 40A). The presence of Galactose will induce a mitochondrial dependent metabolism (FIGS. 40B-40C, Gohil et al., Nature Biotechnology 28, 249-255 (2010)).
The sensitivity of cells to different chemical isoforms of elesclomol was also assessed. […] Removing even one substantially impairs the ability of the molecule to induce toxicity (FIG. 41B).
Cell culture methods—147D, Lo19S T47D, K562 and 293T-HS cells were cultured in RPMI-1640 medium supplemented with 10% fetal bovine serum; HEK293, HEK293T and MCF-7 cells were cultured in Dulbecco's modified Eagle's medium supplemented with 10% fetal bovine serum. For the glucose, galactose experiments media lacking glucose was supplemented with dialyzed serum and either 10 mM Glucose or 10 mM galactose.
(§1) Cell viability—where indicated relative cell number following different drug treatment was conducted by plating cells at 1000 cells/well in 384 well plates. Indicated concentrations of compounds were added 24 hour after plating at least in triplicate for each condition. Viability was measured 72 hours after drug addition using cell titer-glo (Promega) according to manufactures protocol. […]

T47D cells [1] = assay: The glucose/galactose drug screen; format: cell-based, human; details: for relative viability change of cells grown in glucose versus galactose: 10 mM Glucose or Galactose, Selleck anti cancer and natural product libraries
Protocol: We conducted a second set of drug screens to identify unique sensitivities conferred by the Hi-OXPHOS state using parental T47D breast cancer cells (without 19S subunit suppression). For this screen, we used the NPC and CDL libraries as they contained the greatest number of hits in the Lo19S screen. We tested over 800 compounds at multiple concentrations and measured their effects on relative cell growth/viability when cells were grown under aerobic glycolysis conditions (glucose-supplemented medium) or forced mitochondrial respiration conditions (galactose-supplemented medium).
The glucose/galactose drug screen—T47D cells growing in regular media were collected counted and after centrifugation cells were re-suspended in RPM1 media without glucose containing 10% dialyzed serum with the addition of either 10 mM glucose or 10 mM galactose, Cells were then plated at 1000 cells/well in 384-well opaque, white assay plates (Coming, N.Y.), 50 uL per well, and incubated overnight at 37°C./5% CO2. Application of the drug libraries and cell viability was executed as described above for the Lo19S drug screen.

cancer cells = assay: Cell viability, elesclomol and elesclomol analogs (cell titer-glo); format: cell-based; details: substitution of oxygen for sulfur group(s)
From the text: In addition to the intrinsic sensitivity of certain cancer cells to elesclomol, as our drug screen indicated, the sensitivity of cancer cells to elesclomol can be further enhanced by forcing them into a Hi-OXPHOS state.
We examined several elesclomol analogs (FIG. 57B) to determine the structural features that are important for mediating its cytotoxicity. […] Substitution of oxygen for even one of the sulfur groups (compound-5) reduced the activity of elesclomol by 300 fold. The loss of activity was even more pronounced (>>300 fold) when both sulfurs were substituted (compound-6) (FIGS. 51C-51D, FIG. 57C). Various other modifications to the elesclomol scaffold were tolerated, as long as the core sulfur geometry remained intact.
as §1

T47D cells [2] = assay: Drug library screen (Selleck anti-cancer, NPC, NIH bioactive), PSMD2 KD vs control T47D cells; format: cell-based, human
Protocol: Schematic representation of the drug screen setup. (FIG. 37A) 147D cells harboring a doxycycline-inducible PSMD2 shRNA were grown in the presence or absence of doxycycline for 48 hr. Cells were then collected, washed, and plated in the absence of doxycycline for 24 hr prior to exposure different compounds. Relative cell numbers were measured 3 days later.
The relative viability of the Lo19S versus control cells was calculated for replica experiments and the log2 of the ratio is plotted. […] The relative viability of the respiring cells (Hi-OXPHOS) (gal) versus the control cells (glu) was calculated for replica experiments and the log2 of the ratio is plotted.
After 48 hours the cells were collected, counted, and plated at 1000 cells/well in 384 well plates in duplicates for each cell line. Compounds from the Selleck Chemicals anti-cancer compound library (349 drugs in 4 concentrations; […]) were pinned the next day and viability was measured after 72 hours by the reduction of Resazurin (Ex=530 run, Em=590nin). (See FIG. 37A for schematic of screen.)

[3] = system: T47D cells with doxycycline inducible PSMD2 KD (Lo19S) versus control cells; assay: Lo19S T47D drug screen (PSMD2 KD versus control cells, CellTiter-Glo); format: cell-based, human; details: T47D, Lo19S state by dox-inducible PSMD2 shRNA; compound library screen; 72 h; CellTiter-Glo
Protocol: The effect of each drug on viability of cells was calculated by averaging the duplicate experiments. The data is plotted in FIG. 16 as the log2 of the ratio of viability of PSMD2 KD versus control cells (log2 (shPSMD2/Control)). […] The Selleck natural product library (NPC) comprising 502 compounds in 5 doses and the. NIH bioactive compound library that includes 731 compounds in 4 doses were also screened using the same system.
A deeper understanding of the proteasome inhibitor resistant state could yield insights into the molecular mechanisms activated by cells to cope with proteotoxic stress and elucidate new therapeutic strategies for cancer. With these goals in mind, we screened mechanistically diverse small molecule libraries to identify compound sensitivities altered by the Lo19S and Hi-OXPHOS states. An initial screen was conducted in the isogenic T47D model with transient induction of the Lo19S state as described above, We evaluated >4300 mechanistically well-defined compounds within 4 libraries. The compounds included approved cancer drugs (Selleck anti-cancer library: CDL), common natural products (Natural product library: NPC) and an ^-NIH bioactives library (NIH). Each of these compounds was tested at ≥4 concentrations. (Table S5, data not shown), An additional 2866 compounds from the Boston University's Chemical Methodology and Library Development (CMLD-BU) small molecule collection was screened at a single dose (BULL, see Table S5).
Generation of the Lo19S T47D cell line—For the generation of the T47D Tet-inducible PSMD2 knockdown cell line—the TRIPZ vector with an inducible shRNA targeting PSMD2 was purchased from Dharmacon (clone V3THS_403760). It was introduced to the T47D cells according to manufactures protocol and cells were selected with puromycin […] for one week. The cells were exposed to doxycycline for 24 hours and cells were FACS sorted for the top 10% of most RFP expressing cells (highest expression of shRNA). The cells were further cultured in the absence of doxycycline and PSMD2 knockdown was induced as specified in the text.
After 48 hours the cells were collected counted and plated (in the absence of dox) at 1000 cells/well in 384-well opaque, white assay plates (Coming, NY), 50 uL per well, and incubated overnight at 37° C./5% CO2. Compound stocks from the Cancer drug library containing 349 bioactive compounds that were arrayed in dose 10 nM, 100 nM, 1 uM, 10 uM (Selleck anti-cancer compound library L3000), the natural products library containing 502 compounds that were utilized in 5 doses (dilution of 1:1000 of 2ug/ml, 0.2 ug/ml, 0.002/ug/ml, 0.0002 ug/ml), the NIH bioactive library including 731 drugs in dose of 10 nM, 100 nM, 1 uM, 10 uM and the Boston University's CMLD (Chemical Methodology and Library Development) compound deck containing 2866 compounds in one dose (10 uM), including novel chemotypes that uniquely probe three-dimensional space by employing stereochemical and positional variation within the molecular framework as diversity elements in library design. 50 nl of compounds were pin-transferred (V&P Scientific, CA, pin tool mounted onto Tecan Freedom Evo 150 MCA96 head, Tecan, Calif.) into duplicate assay plates and incubated for 72 h. The DMSO content was 0.1% within each well, Per plate, there are 32 wells of DMSO vehicle control and 32 wells of positive control compounds. After three days of incubation, 10 uL of CellTiter-Glo (Promega, Wis.) was added to each well, incubated for 10 minutes and the luminescence output was read on the M1000 Infinite Pro plate reader (Tecan, Calif.).

[4] = system: IMR32 (reduced PSMD5) and Kelly neuroblastoma cells; assay: Viability of IMR32 versus Kelly neuroblastoma cells (CellTiter-Glo); format: cell-based, human; details: 72 hours after addition; CellTiter-Glo
Protocol: To determine whether these compounds also differentially affect cells with reduced expression of PSDMS, IMR32 and Kelly cells were each cultured in the presence of ABT-263, disulfiram, or elesclomol across a range of concentrations. Cell viability was measured by CellTiter-Glo® Luminescent Cell Viability Assay 72 hours after addition of the compound to cells. The fold viability relative to culture in the absence of the compound was determined for each cell line. […] In the experiment shown in FIG. 24, the lowest lower concentration of ABT-263 and disulfiram tested was 1 uM.
ABT-263 targets several members of the BCL2 family, including BCL2 and BCL-XL.

[5] = system: IMR32 (reduced PSMD5) and Kelly neuroblastoma cells; assay: as above; format: cell-based, human; details: other experiments, e.g., 0.1 uM

Compound	sensitivity of cells in galactose (mitochondrial metabolism, Hi-OXPHOS) versus glucose (glycolytic) (MCF7 and HEK293 cells)	relative viability change of cells grown in glucose versus galactose (T47D cells [1])	reduction of activity relative to elesclomol (cancer cells) [fold]	sensitivity of proteasome inhibitor resistant cancer cells vs sensitive counterpart cells (T47D cells [2])	growth inhibition of T47D cells with reduced level of PSMD2 vs control T47D cells (T47D cells [2]; Selleck anti-cancer compound library screen)	viability of PSMD2 KD versus control cells (log2 (shPSMD2/Control)) [3]	sensitivity of IMR32 cells relative to Kelly cells (fold viability) [4]	number of concentrations at which respiring cells were preferentially targeted (T47D cells [1]; galactose versus glucose) [concentrations]	toxicity at lower concentrations than 1 uM [5]
antimycin A	This phenomenon is observed	increased sensitivity	–	–	–	–	–	–	–
CN(NC(=O)CC(=O)NN(C)C(=S)c1ccccc1)C(=O)c1ccccc1 [compound-5]	–	–	300	–	–	–	–	–	–
CCN(CC)C(=S)SSC(=S)N(CC)CC [disulfiram, tetraethylthiuram disulfide]	–	cells that respire are predominantly sensitive; also recorded: preferentially targeted respiring cells; also recorded: more potent in cells in the Hi-OXPHOS state	–	highly sensitive	selectively inhibit growth	selectively reduce the viability of PSMD2 KD cells versus control cells; also recorded: selectively sensitized cells; also recorded: highly effective in slowing the growth of cells in the Lo19S state	dramatically more sensitive	4	a similar level of toxicity was observed
